Test results from US8980934B2, “Kinase inhibitors and method of treating cancer with same” (University Health Network, priority 2012, dated 2015).

Legend:
Assay type in all cases: cell-based
[1] = tested on: colon 12 tumor initiating cells; test: Colon tumor-initiating cell growth inhibition, Alamar Blue assay; conditions: 216 h, colon TICs, 9 days culture, read-out: Tumor Initiating Cell Line GI50 Range colon 12
Description: (§1) Non-tissue or tissure cultured treated T-75 flask and 96-well plates were purchased from VWR. Vitamin B-27 supplement, MEM NEAA (minimum essential medium non essential amino acids), sodium pyruvate, L-glutamine, N2 supplement, penicillin-streptomycin and fungizone/amphotericin B were obtained from Invitrogen. Lipid mixture, heparin and EGF were purchased from Sigma; bFGF from BD Biosciences. Colon tumor initiating cells (TICs) were routinely maintained using non-tissue cultured treated T-75 flasks in DMEM:F12 medium containing 0.2XB-27 supplement, 4 ug/ml heparin, 1XMEM NEAA, 1Xsodium pyruvate, 1 mM glutamine, 10 pg/ul bFGF, 20 pg/ul EGF, 1×N2 supplement, lipid mixture, penicillin-streptomycin and fungizone/amphotericin B. Ovarian TICs were routinely maintained using tissue cultured treated T-75 flasks in DMEM:F12 medium containing 1XB-27 supplement, 4 ug/ml heparin, 20 pg/ul bFGF, 20 pg/ul EGF and penicillin-streptomycin.
(§2) Compounds described herein were dissolved in DMSO and further diluted in cell culture medium for GI50 determination. Colon TICs were trypsinized and seeded into non-tissue cultured treated 96-well plates with 4,000 cells/well. After 24 h, compound was added into the cell culture at different concentrations, and the final concentration of DMSO was adjusted to 0.1%. Cells were then cultured at 37° C. for 9 days. Ovarian TICs were trypsinized and seeded into tissue cultured treated 96-well plates with 1,000 cells/well. After 24 h, compound was added into the cell culture at different concentrations, and the final concentration of DMSO was adjusted to 0.1%. Cells were then cultured at 37° C. for 6 days. Cell viability was assessed by Alamar Blue assay: 10 ul of Alamar Blue was added into each well. After 4 hours incubation at 37° C., fluorescence was recorded at excitation 544 and emission 590. GI50 (Growth inhibition) was calculated using GraphPad Prism 4.0 software. Cell growth inhibition data for compounds described herein is tabulated below (Table 2). The GI50 ranges are indicated as “A,” and “B”, for values less than or equal to 0.1 μM: those greater than 0.1 μM and less than or equal to 0.5 μM, respectively.

[2] = tested on: ovarian 2393A tumor initiating cells; test: Ovarian tumor-initiating cell growth inhibition, Alamar Blue assay; conditions: 144 h, ovarian TICs, 6 days culture, read-out: Tumor Initiating Cell Line GI50 Range ovarian 2393A
Description: as §1, §2

[3] = tested on: MDA-MB-231 breast cancer cells; test: Cancer cell growth inhibition, Sulforhodamine B assay; conditions: Homo sapiens, 120 h; MDA-MB-231, 5 days culture, SRB; read-out: Cancer Cell Line GI50 Range MDA-MB-231
Protocol: (§3) Breast cancer cells (MDA-MB-231), colon cancer cells (HCT116) and ovarian cancer cells (PA-1) were seeded (1000 to 4000 in 80 μl per well depending on the cell growth rate) into 96 well plates 24 hours before compound overlay. Compounds were prepared as 10 mM stock solutions in 100% DMSO which were diluted with DMEM (Dulbecco's Modified Eagle's Medium) cell growth Medium (Invitrogen, Burlington, ON, Canada) containing 10% FBS (Fetal Bovine Serum) to concentrations ranging from 50 nM to 250 μM. Aliquots (20 μl) from each concentration were overlaid to 80 μl of the pre-seeded cells in the 96 well plates to make final concentrations of 10 nM to 50 μM. The cells were cultured for 5 days before the Sulforhodamine B assay (SRB) was performed to determine the compound's cell growth inhibition activity.
(§4) Sulforhodamine B (purchased from Sigma, Oakville, ON, Canada) is a water-soluble dye that binds to the basic amino acids of the cellular proteins. Thus, colorimetric measurement of the bound dye provides an estimate of the total protein mass that is related to the cell number. the cells are fixed in situ by gently aspirating off the culture media and adding 50 μl ice cold 10% Trichloroacetic Acid (TCA) per well and incubate at 4° C. for 30-60 min. The plates are washed with H2O five times and allowed to air dry for 5 min. Addition of 50 μl 0.4% (w/v) SRB solution in 1% (v/v) acetic acid to each well and incubatation for 30 min at RT completes the staining reaction. Following staining, plates are washed four times with 1% acetic acid to remove unbound dye and then allowed to air dry for 5 min. The stain is solubilized with 100 μl of 10 mM Tris pH 10.5 per well. Absorbance is read at 570 nm.
(§5) The percentage (%) of relative growth inhibition was calculated by comparing to DMSO treated only cells (100%). GI50's were determined for compounds with cytotoxic activity. The GI50 was calculated using GraphPad PRISM software (GraphPad Software, Inc., San Diego, Calif., USA). GI50 (growth inhibition) is the compound concentration that causes 50% inhibition of cell growth.
(§6) In Table 1 below, GI50 value ranges for several compound examples against breast cancer cell lines (MDA-MB-231), colon cancer cell lines (HCT116) and ovarian cancer cell lines (PA-1) are given. […] The GI50 ranges are indicated as “A,” “B,” and “C,” for values less than or equal to 0.1 μM; those greater than 0.1 μM and less than or equal to 0.5 μM; and those greater than 0.5 μM, respectively.

[4] = tested on: PA-1 ovarian cancer cells; test: as above; conditions: 120 h; PA-1, 5 days culture, SRB; read-out: Cancer Cell Line GI50 Range PA-1
Protocol: as §3, §4, §5, §6

[5] = tested on: HCT116 colon cancer cells; test: as above; conditions: Homo sapiens, HCT-116, 120 h; HCT116, 5 days culture, SRB; read-out: Cancer Cell Line GI50 Range HCT116
Protocol: as §3, §4, §5, §6

Row | SMILES | GI50 [1] [nM] | GI50 [2] [nM] | GI50 [3] [nM] | GI50 [4] [nM] | GI50 [5] [nM]
1 | CC(C)[C@H](NC(=O)c1ccc2[nH]nc(-c3ccc(N4CC5(CC(O)C5)C4)cc3)c2c1)c1ccccc1Cl [Example A32, (S)-N-(1-(2-Chlorophenyl)-2-methylpropyl)-3-(4-(6-hydroxy-2-azaspiro[3.3]heptan-2-yl)phenyl)-1H-indazole-5-carboxamide] | ≤ 100 | ≤ 100 | ≤ 100 | ≤ 100 | ≤ 100
2 | Cc1ccccc1C(NC(=O)c1ccc2[nH]nc(-c3ccc(N4CC5(COC5)C4)cc3)c2c1)C1CC1 (stereo not drawn) [Example A3, 3-(4-(2-Oxa-6-azaspiro[3.3]heptan-6-yl)phenyl)-N-(cyclopropyl(o-tolyl)methyl)-1H-indazole-5-carboxamide] | ≤ 100 | 100 to 500 | 100 to 500 | ≤ 100 | ≤ 100
3 | O=C(NC(c1ncccn1)C1CCCC1)c1ccc2[nH]nc(-c3ccc(N4CC5(COC5)C4)cc3)c2c1 (stereo not drawn) [Example A24, 3-(4-(2-oxa-6-azaspiro[3.3]heptan-6-yl)phenyl)-N-(cyclopentyl(pyrimidin-2-yl)methyl)-1H-indazole-5-carboxamide] | ≤ 100 | ≤ 100 | ≤ 100 | ≤ 100 | ≤ 100
